According to patent publication US9273075B2, “Prodrugs of 1,4-benzodiazepinone compounds” (BRISTOL-MYERS SQUIBB COMPANY, priority 2012, dated 2016):

Key:
[1] = system: Pat-21/Abx R TN breast cancer (abx R); experiment: Human tumor xenograft in mice: Pat-21/Abx R; format: in vivo; conditions: Pat-21/Abx R xenograft; PO, QDx15, 10 day-on-2 day-off, 5-10 mg/kg/adm
[2] = system: Pat-34 ovarian cancer; experiment: Human tumor xenograft in mice: Pat-34; format: in vivo; conditions: Pat-34 xenograft; PO, QDx15, 10 day-on-2 day-off, 5-10 mg/kg/adm
[3] = system: Pat-50 ovarian cancer; experiment: Human tumor xenograft in mice: Pat-50; format: in vivo; conditions: Pat-50 xenograft; PO, QDx15, 10 day-on-2 day-off, 5-10 mg/kg/adm
[4] = system: SK-N-AS neuroblastoma; experiment: Human tumor xenograft in mice: SK-N-AS; format: in vivo; conditions: PO, QDx15, 10 day-on-2 day-off, 5-10 mg/kg/adm
[5] = system: G292 osteogenic sarcoma; experiment: Human tumor xenograft in mice: G292; format: in vivo; conditions: PO, QDx15, 10 day-on-2 day-off, 5-10 mg/kg/adm
[6] = 0.5 μM compound, human liver microsomes, ten-minute incubation, NADPH
Method: The metabolic stability assay evaluated CYP-mediated metabolic stability in vitro using human, rat, mouse, dog, and/or monkey microsomes after a ten-minute incubation. Each compound was tested in duplicate.
Test compound was received as a 3.5 mM stock solution in 100 percent DMSO. […] Each compound was tested in duplicate separately in each of three species in the Metabolic Stability-Human, Rat, and Mouse assay suite or as individual species in the Metabolic Stability-Dog or Metabolic Stability-Monkey suites. Compound, NADPH, and liver microsome solutions were combined for incubation in three steps:
The reaction was initiated by the addition of 17 μl of pre-warmed 10 mM NADPH solution in 100 mM NaPi, pH 7.4.
The reaction components were mixed well, and 75 μl of the reaction mixture was immediately transferred into 150 μl quench/stop solution (zero-time point, T0). Reactions were incubated at 37° C. for 10 minutes and then an additional 75 μl aliquot was transferred into 150 μl quench solution. Acetonitrile containing 100 μM DMN (a UV standard for injection quality control), was used as the quench solution to terminate metabolic reactions.
Quenched mixtures were centrifuged at 1500 rpm (˜500×g) in an ALLEGRA® X-12 centrifuge, SX4750 rotor (Beckman Coulter Inc., Fullerton, Calif.) for fifteen minutes to pellet denatured microsomes. A volume of 90 μl of supernatant extract, containing the mixture of parent compound and its metabolites, was then transferred to a separate 96-well plate for UV-LC/MS-MS analysis to determine the percent of parent compound that remained in the mixture.
Peak integration was performed with the XCALIBUR® software. The percent remaining calculation was performed by comparing the LC-MS/MS peak areas from the T10minute samples to those from the T0minute samples for each compound.
A set of three compounds was tested along with the test compound in each assay plate.

[7] = system: Calu-6 Non small cell lung cancer; experiment: Human tumor xenograft in mice: Calu-6; format: in vivo; conditions: Calu-6 xenograft; PO, QDx15, 10 day-on-2 day-off, 5-10 mg/kg/adm
[8] = system: MDA-MB468 TN breast cancer; experiment: Human tumor xenograft in mice: MDA-MB468; format: in vivo; conditions: PO, QDx15, 10 day-on-2 day-off, 5-10 mg/kg/adm
[9] = system: Pat-26 pancreatic cancer; experiment: Human tumor xenograft in mice: Pat-26; format: in vivo; conditions: Pat-26 xenograft; PO, QDx15, 10 day-on-2 day-off, 5-10 mg/kg/adm
[10] = system: TALL-1 leukemia; experiment: Cell proliferation, TALL-1 leukemia; format: cell-based; conditions: Homo sapiens; TALL-1 leukemia cells
Method: (§1) In in vitro studies, all agents were dissolved in 100% DMSO and serially diluted in media/10% fetal bovine serum. For administration of Notch inhibitors to rodents, two different excipients were used: [1] 94% Labrafil/5% ETOH/1% TW80 or [2] ETOH/TPGS/PEG300 (10:10:80). Notch inhibitors were typically administered orally on a schedule of QD×15, 10 day-on-2 day-off, although other schedules had also been evaluated and shown to be efficacious.

[11] = system: Pat-24 pancreatic cancer; experiment: Human tumor xenograft in mice: Pat-24; format: in vivo; conditions: Pat-24 xenograft; PO, QDx15, 10 day-on-2 day-off, 5-10 mg/kg/adm
[12] = system: MCF7 estrogen-dependent breast cancer; experiment: Human tumor xenograft in mice: MCF7; format: in vivo; conditions: PO, QDx15, 10 day-on-2 day-off, 5-10 mg/kg/adm
[13] = system: BT-474 HER2+ breast cancer; experiment: Human tumor xenograft in mice: BT-474; format: in vivo; conditions: BT-474 xenograft; PO, QDx15, 10 day-on-2 day-off, 5-10 mg/kg/adm
[14] = system: MDA-MB157 TN breast cancer; experiment: Human tumor xenograft in mice: MDA-MB157; format: in vivo; conditions: PO, QDx15, 10 day-on-2 day-off, 5-10 mg/kg/adm
[15] = High Throughput Metabolic Stability Panel, mouse liver microsomes; conditions: 0.5 μM compound, mouse liver microsomes, ten-minute incubation, NADPH
[16] = system: TALL1 Human T-cell acute lymphoblastic leukemia; experiment: Human tumor xenograft in mice: TALL1; format: in vivo
[17] = system: U-87 glioblastoma multiforme (GBM); experiment: Human tumor xenograft in mice: U-87; format: in vivo; conditions: U-87 xenograft; PO, QDx15, 10 day-on-2 day-off, 5-10 mg/kg/adm
[18] = system: MDA-MB-468 breast cancer; experiment: Cell proliferation, MDA-MB-468 breast cancer; format: cell-based; conditions: Homo sapiens; MDA-MB-468 breast cancer cells
Method: as §1

[19] = system: HCT116 colon cancer; experiment: Human tumor xenograft in mice: HCT116; format: in vivo; conditions: PO, QDx15, 10 day-on-2 day-off, 5-10 mg/kg/adm
[20] = system: MCF7i estrogen-independent breast cancer; experiment: Human tumor xenograft in mice: MCF7i; format: in vivo; conditions: PO, QDx15, 10 day-on-2 day-off, 5-10 mg/kg/adm

CN1C(=O)[C@@H](NC(=O)[C@H](CCC(F)(F)F)[C@H](CCC(F)(F)F)C(N)=O)N=C(c2ccccc2)c2ccccc21 [Compound A, (2R,3S)—N-((3S)-1-Methyl-2-oxo-5-phenyl-2,3-dihydro-1H-1,4-benzodiazepin-3-yl)-2,3-bis(3,3,3-trifluoropropyl)succinamide]
Antitumor Activity (% TGI) [1]: 73 % TGI
Antitumor Activity (% TGI) [2]: 89 % TGI
Antitumor Activity (% TGI) [3]: 91 % TGI
Antitumor Activity (% TGI) [4]: 67 % TGI
Antitumor Activity (% TGI) [5]: 75 % TGI
0.5 μM HLM (% Remaining) [6]: 97%
Antitumor Activity (% TGI) [7]: 81 % TGI
Antitumor Activity (% TGI) [8]: 91 % TGI
Antitumor Activity (% TGI) [9]: 93 % TGI
IC50 [10]: 3.9 nM
Antitumor Activity (% TGI) [11]: 111 % TGI
Antitumor Activity (% TGI) [12]: 73 % TGI
Antitumor Activity (% TGI) [13]: 96 % TGI
Antitumor Activity (% TGI) [14]: 81 % TGI
0.5 μM MsLM (% Remaining) [15]: 91%
in vivo efficacy against TALL1, activity as defined by the tumor growth inhibition (TGI) ([16]; FIG. 1, dosed intravenously QD×3, weekly×3, Compound A 3 mg/kg, Example 12 1.5, 3, 6 mg/kg, active = TGI≧50%): active
Antitumor Activity (% TGI) ([16]; TALL1 xenograft, PO, QDx15, 10 day-on-2 day-off, 5-10 mg/kg/adm): 112 % TGI
Antitumor Activity (% TGI) [17]: 82 % TGI
IC50 [18]: 3.8 nM
Antitumor Activity (% TGI) [19]: 75 % TGI
Antitumor Activity (% TGI) [20]: 63 % TGI
